Measured values from patent publication US20260014129A1, “MITOCHONDRIAL PYRUVATE METABOLISM INHIBITORS FOR TREATING CHRONIC MYELOID LEUKEMIA” (The University Court of the University of Glasgow, priority 2022, published 2026).

Key:
[1] = system: CML CD34+ cells; assay: Mitochondrial respiratory capacity (FCCP-induced oxygen consumption rate); type: cell-based, human; conditions: imatinib-treated samples
[2] = system: K562 cells; assay: Viability (Annexin V/7AAD) and CFC assays of vector control versus PC knockout K562 cells; type: cell-based, human; conditions: 72 hours; 600 nm imatinib or 100 nm omacetaxine
Experimental: (a) Western blot of PC and loading control (tubulin) from vector control or PC knockout K562 cells. (b) Proliferation of K562 cells from A. Shown is average and SEM from 3 independent experiments. (c) Fractional labelling from ^13C6 glucose into indicated metabolites of PC knockout cells are shown (n=3) after 24 hours. Plots were generated using Autoplotter, average and SD are plotted. Statistical analyses were conducted on the m+5 fraction. An ordinary one-way ANOVA was used with Dunnett's test used to correct for multiple comparisons. (d) Cells viability was measured using Annexin V and 7AAD. Cells were either left untreated (UT) or exposed for 72 hours to 600 nm imatinib or 100 nm omacetaxine (OMA). Shown is average and SEM from 4 independent experiments. An ordinary one-way ANOVA was used with Dunnett's test used to correct for multiple comparisons. (e) Colony Forming Cell (CFC) potential of control and […] cells. Cells were either left untreated (UT) or exposed for 72 hours to 600 nm imatinib. Shown is average and SEM from 4 independent experiments. An ordinary one-way ANOVA was used with Dunnett's test used to correct for multiple comparisons. […]

[3] = system: CML CD34+ cells; assay: Extracellular flux of spent medium by YSI bioanalyser; type: cell-based, human
Experimental: A YSI 2900 biochemistry analyser was used as per the manufacturer's instructions to quantify glucose, lactate, glutamine, and glutamate in the media. The concentration of each metabolite was normalised to cell number and the rate of uptake or secretion per hour was calculated relative to cell free medium. The exchange rate per 48 hours [secretion (+) or consumption (−)] for a specific metabolite (x) was obtained according to the following equation:

[4] = system: KCL22 cell line; assay: Imatinib sensitivity of PC knockout KCL22 cell line; type: cell-based, human; conditions: data not shown
[5] = Body weight of xenografted NRG-W41 mice during treatment; conditions: 4 weeks
Experimental: For in vivo engraftment, 1 million CML CD34^+ cells, were transplanted via tail vein into sublethally irradiated (2.5Gy) female NRG-W41 (NOD.Cg-Rag1^tm1MomKit^W-41JIl2rg^tm1Wjl)) mice aged 8-10 weeks. Mice were housed under conditions of alternating 12 hours light and 12 hours darkness, at 20-24° C., 45-65% humidity, with feeding (LBS biotech: SDS Cat #SDS801730) and water ad libitum.
For treatment with imatinib plus MSDC-0160, eight weeks following transplant, drug treatment was started with both imatinib (LC Laboratories, Cat #1-5508) dosed at 100 mg/kg/day (50 mg per kg body weight BID) oral gavage and MSDC-0160 (30 mg/kg; oral gavage once daily). Treatment was given for 4 weeks.

Compound	mitochondrial respiratory capacity (FCCP-induced oxygen consumption rate) [1]	sensitisation of K562 to the drug by PC ablation, viability and CFC assays [2]	glucose consumption ([3]; imatinib-treated vs control primary CML CD34+ cells)	glutamine consumption ([3]; imatinib-treated vs untreated primary CML CD34+ cells)	sensitivity to the drug after knockout of PC in KCL22 [4]	tolerability (body weight throughout the study), single agent arms ([5]; imatinib 50 mg/kg BID or MSDC-0160 30 mg/kg/day, oral gavage)	tolerability (body weight throughout the study), combination arm ([5]; imatinib 50 mg/kg BID plus MSDC-0160 30 mg/kg/day)
Cc1ccc(NC(=O)c2ccc(CN3CCN(C)CC3)cc2)cc1Nc1nccc(-c2cccnc2)n1 [imatinib]	reduced	sensitised	consumed less glucose than control cells, when corrected for a decrease in proliferation this difference disappeared	decreased	failed to increase sensitivity		
CCc1ccc(C(=O)COc2ccc(CC3SC(=O)NC3=O)cc2)nc1 (stereo not shown) [MSDC-0160]						well tolerated	well tolerated
